Several values for one entry are separate records, joined by “and”; a condition that tells them apart may be missing. Equal values may be shown once. Entries after “also recorded” stand apart in the source; their conditions may differ.
Experiments:
[1] = tested on: osteoclasts cultured on bone slices; experiment: In vitro bone resorption assay (osteoclasts on bovine bone slices, CrossLaps); format: cell-based, rat; conditions: Control = Baseline+10 nM bafilomycin Al; for Relative medium CrossLaps amounts per osteoclast, replicates 1-6 / Relative medium CrossLaps amounts per osteoclast, Mean ± SD: first bone resorption assay; for Relative medium CrossLaps amounts per osteoclast, replicates 1-6 / Relative medium CrossLaps amounts per osteoclast, Mean ± SD / Relative medium CrossLaps amounts per osteoclasts, Mean ± SD / Relative medium CrossLaps amounts per osteoclasts, replicates 1-6: relative to mean of baseline group, 72 hours; for Relative medium CrossLaps amounts per osteoclast, replicates 1-6: LA number = ng/ml lanthanum in culture medium; for Relative medium CrossLaps amounts per osteoclast, Mean ± SD / Relative medium CrossLaps amounts per osteoclasts, Mean ± SD / Relative medium CrossLaps amounts per osteoclasts, replicates 1-6 / Combined results on bone resorption (relative medium CrossLaps per osteoclast), Mean ± SD: LA number = ng/ml lanthanum; for Relative medium CrossLaps amounts per osteoclasts, Mean ± SD / Relative medium CrossLaps amounts per osteoclasts, replicates 1-6: second bone resorption assay; for Combined results on bone resorption (relative medium CrossLaps per osteoclast), Mean ± SD: tables 1 and 2 combined, number 12
Text: The method of osteoclast culture on bone slices was originally described by Boyde et al. (1984) and by Chambers et al. (1984). For cell culture, we used a method slightly modified from the original methods (Lakkakorpi et al. 1989, Lakkakorpi and Väänänen, 1991). The rate of bone resorption in the cultures was originally determined by counting the number of resorption pits on each bone or dentine slice using a microscope with phase contrast objectives (Sundquist et al. 1990). Later, the pits were visualized using Wheat Germ Agglutinin lectin that specifically binds to the resorbed area in bone (Selander et al. 1994), making it possible to quantify the total resorbed area using a microscope and computer-assisted image analysis system (Laitala and Väänänen 1994, Hentunen et al. 1995). We used a commercially available method (CrossLaps for cultures, Osteometer Biotech, Herlev, Denmark) to detect the amount of collagen cross-links released into the culture medium as an index of the bone resorption rate (Bagger et al., 1999).
The study protocol uses a method where osteoclasts are cultured on bone slices and allowed to resorb bone. The system is ideal for determining the effect of drug candidates on the bone resorbing activity of osteoclasts. Drug candidates are added into the cell cultures at the beginning of the culture period, and the osteoclasts allowed to resorb bone for 3 days. The amount of bone resorbed during the culture period is determined and compared to the amount of bone resorbed in control cultures (those cultured in the absence of drug candidates).
Transverse 0.1 mm thick slices of cortical bone were cut from the diaphysis of fresh bovine femurs (Atria Slaughterhouse, Oulu, Finland) using a low-speed diamond saw, cleaned by ultrasonication in multiple changes of sterile distilled water, and stored at 4° C. before use. Long bones were removed from 1-day-old rat pups killed by decapitation. […] The resulting suspension of dispersed cells and bone fragments was agitated using a plastic pipette. Larger fragments were allowed to sediment for a few seconds and the supernatant was seeded onto the bone slices pre-wetted in the medium. After a settling period of 30 minutes at 37° C., the bone slices were washed by dipping in fresh medium, and then transferred to wells in 24-well culture dishes containing osteoclast culture medium. The bone slices were incubated in a humidified atmosphere of 95% air and 5% carbon dioxide at 37° C. for 72 hours.
After the culture period, the amount of bone resorption was determined by measuring the amount of collagen cross-links released into the culture medium using a commercial kit (CrossLaps for cultures, Osteometer Biotech) according to the manufacturer s instructions. The number of osteoclasts in each culture was determined by microscopic counting of the amount of TRAP-positive multinuclear cells, and the results are given as the number of collagen cross-links released per one osteoclast.
In the bone resorption assay, the amount of medium CrossLaps (nM) released into the culture medium was determined and the number of osteoclasts in the corresponding cultures calculated. The medium CrossLaps amounts were divided with the osteoclast numbers in the corresponding cultures, and the results are given on Table 1 as relative medium CrossLaps amounts per osteoclasts. The relative values were obtained by dividing each individual value with the mean value of the baseline group.

[2] = tested on: mouse bone marrow derived osteoprogenitor cells; experiment: In vitro osteoblast differentiation assay (cellular alkaline phosphatase); format: cell-based; conditions: LA number = ng/ml lanthanum; for Effect on osteoblast differentiation, in words: lanthanum (III) ion = 100-15000 ng/ml, 17-estradiol 10^−10 M; for Relative specific activities of intracellular alkaline phosphatase, Mean ± SD / Relative specific activities of intracellular alkaline phosphatase, replicates 1-8 / Relative specific activities of intracellular alkaline phosphatase, replicates 1-4 / Relative specific activities or intracellular alkaline phosphatase, Mean ± SD / Relative specific activities or intracellular alkaline phosphatase, replicates 1-6: relative to mean of baseline group, 8 days; for Relative specific activities of intracellular alkaline phosphatase, Mean ± SD / Relative specific activities of intracellular alkaline phosphatase, replicates 1-8 / Relative specific activities of intracellular alkaline phosphatase, replicates 1-4 / Relative specific activities or intracellular alkaline phosphatase, Mean ± SD / Relative specific activities or intracellular alkaline phosphatase, replicates 1-6 / Combined results on osteoblast differentiation (relative specific ALP activity), Mean ± SD: Control = Baseline+10^−10 M 17-estradiol; for Relative specific activities or intracellular alkaline phosphatase, Mean ± SD / Relative specific activities or intracellular alkaline phosphatase, replicates 1-6: second osteoblast differentiation assay; for Combined results on osteoblast differentiation (relative specific ALP activity), Mean ± SD: tables 8-10 combined, number 18
Text: We have established a culture model in which mouse bone marrow derived osteoprogenitor cells first proliferate and then differentiate to osteoblasts capable of forming mineralized bone nodules (Qu et al. 1998, Qu et al. 1999). We confirmed this by following the expression of several markers of the osteoblastic phenotype and by studying the morphology of cultures at light and electron microscopic level. […] Thus, this culture system fulfills requirements of an in vitro model useful for studying differentiation of osteoprogenitor cells into bone synthesizing osteoblasts. […] Animals were killed by cervical dislocation. Both femora were removed and the soft tissues were detached aseptically. Metaphyses from both ends were cut off and bone marrow cells were collected by flushing the diaphysis with culture medium: phenol red-free-α-modified essential medium (α-MEM (Gibco BRL, Paisley, UK)). […] The cells were cultured for 6 days and half of the media […] days. […] Cells were washed with warm PBS and adherent cells were detached using trypsin-EDTA. […] The test substances were added at the beginning of the secondary culture without estrogen, and every time when the medium was changed. The number of osteoblasts formed was determined by measuring cellular alkaline phosphatase (ALP) activity in the culture. […] Louis, Mo., USA), and overnight freezing. ALP activity was determined colorimetrically using p-nitrophenylphosphate as substrate at pH 9.7 and determining the optical density at 405 nm. In parallel, protein contents of the wells were determined by the BIO-RAD protein assay, and the specific ALP activity is expressed as units/mg protein. […] Osteoblast differentiation was determined by measuring cellular alkaline phosphatase (ALP) activities and total protein amounts from cell lysates. The ALP activities were divided with the corresponding protein amounts to obtain specific activities of ALP. The results are shown as relative specific activities obtained by dividing each individual value with the mean value of the baseline group.

[3] = tested on: mature osteoblasts; experiment: In vitro bone formation assay (calcium deposition into bone nodules); format: cell-based, mouse; conditions: LA number = ng/ml lanthanum; for Effect on bone formation activity of mature osteoblasts, in words: lanthanum (III) / lanthanum (III) ion = all concentrations tested, 100 to 15,000 ng/ml, 17-estradiol 10^−10M; for Calcium deposition, Mean ± SD / Calcium deposition, replicates 1-6 / Calcium deposition, replicates 1-4 / Calcium deposition, replicates 1-8: calcium released from bone nodules after HCl extraction; for Calcium deposition, Mean ± SD / Calcium deposition, replicates 1-6 / Calcium deposition, replicates 1-4 / Calcium deposition, replicates 1-8 / Combined results on bone formation activity of mature osteoblasts (calcium released), Mean ± SD: Control = Baseline+10^−10M 17β-estradiol; for Combined results on bone formation activity of mature osteoblasts (calcium released), Mean ± SD: tables 13 and 14 combined, number 14
Method: The activity of mature osteoblasts can be determined by quantifying their ability to form mineralized bone matrix. This is done by demineralizing the formed bone matrix, and determining the amount of calcium released. Thus, this culture system fulfills requirements of an in vitro model useful for studying the bone formation activity of mature osteoblasts. […] At the end of the culture, the amount of calcium deposited during the culture period was determined, and the amount of bone formation (calcium deposition) calculated. […] Extracts of 50 μl were complexed with 1 ml determined o-cresol-phthalein-complexon. The colorimetric reaction was determined at 570 nm in a spectrophotometer. Absolute calcium concentrations were determined by comparison with a calibrated standard provided by the vendor. In this study, the effect of lanthanum carbonate on bone formation was tested. […] The amount of bone formation was determined by measuring the amount of calcium deposited into bone nodules formed by mature osteoblasts. The results are shown as the amount of calcium released (mmol/L) from the bone nodules after HCl extraction. The baseline values are too low to show the results using relative amounts as was done in the other assays.

[4] = first osteoblast differentiation assay
[5] = preliminary osteoblast differentiation assay
[6] = preliminary bone formation assay

| SMILES | Relative medium CrossLaps amounts per osteoclast, replicates 1-6 [1] | Relative medium CrossLaps amounts per osteoclast, Mean ± SD [1] | Relative medium CrossLaps amounts per osteoclasts, Mean ± SD [1] | Relative medium CrossLaps amounts per osteoclasts, replicates 1-6 [1] | Combined results on bone resorption (relative medium CrossLaps per osteoclast), Mean ± SD [1] | Effect on osteoblast differentiation, in words [2] | Relative specific activities of intracellular alkaline phosphatase, Mean ± SD [2, 4] | Relative specific activities of intracellular alkaline phosphatase, replicates 1-8 [2, 4] | Relative specific activities of intracellular alkaline phosphatase, Mean ± SD [2, 5] | Relative specific activities of intracellular alkaline phosphatase, replicates 1-4 [2, 5] | Relative specific activities or intracellular alkaline phosphatase, Mean ± SD [2] | Relative specific activities or intracellular alkaline phosphatase, replicates 1-6 [2] | Combined results on osteoblast differentiation (relative specific ALP activity), Mean ± SD [2] | Effect on bone formation activity of mature osteoblasts, in words [3] | Calcium deposition, Mean ± SD ([3]; first bone formation assay) [mmol/L] | Calcium deposition, replicates 1-6 ([3]; first bone formation assay) | Calcium deposition, Mean ± SD [3, 6] [mmol/L] | Calcium deposition, replicates 1-4 [3, 6] | Calcium deposition, Mean ± SD ([3]; second bone formation assay) | Calcium deposition, replicates 1-8 ([3]; second bone formation assay) | other results |
| --- | --- | --- | --- | --- | --- | --- | --- | --- | --- | --- | --- | --- | --- | --- | --- | --- | --- | --- | --- | --- | --- |
| O.O.O.O.O=C([O-])[O-].O=C([O-])[O-].O=C([O-])[O-].[La+3].[La+3] [LA 1000, lanthanum carbonate tetrahydrate] | 1.14 and 1.09 and 0.89 and 1.76 and 1.07 and 1.11 | 1.18 ± 0.30 | 1.13 ± 0.51 | 0.70 and 0.59 and 1.69 and 1.40 and 1.68 and 0.73 | 1.15 ± 0.40 | No significant response; also recorded: do not decrease the formulation of osteoblasts | 0.94 ± 0.14 | 1.01 and 0.78 and 0.81 | 0.94 ± 0.19 | 0.69 and 1.13 and 0.92 and 1.01 | 0.88 ± 0.21 | 0.73 and 0.71 and 1.19 and 0.81 and 0.72 and 1.09 | 0.92 ± 0.17 | stimulate bone formation | 1.29 ± 0.28 | 0.95 mmol/L and 1.66 mmol/L and 1.47 mmol/L and 1.41 mmol/L and 1.00 mmol/L and 1.25 mmol/L | 0.07 ± 0.05 | 0.10 mmol/L and 0 mmol/L and 0.11 mmol/L and 0.05 mmol/L | 1.14 ± 0.55(* mmol/L | 1.76 mmol/L and 0.02 mmol/L and 1.52 mmol/L | Combined results on bone formation activity of mature osteoblasts (calcium released), Mean ± SD [3]: 1.20 ± 0.45 mmol/L |
| O.O.O.O.O=C([O-])[O-].O=C([O-])[O-].O=C([O-])[O-].[La+3].[La+3] [LA 5000, lanthanum carbonate tetrahydrate] | 1.39 and 0.78 and 2.70 and 1.18 and 0.76 and 1.21 | 1.34 ± 0.71 | 1.20 ± 0.59 | 0.48 and 1.18 and 0.77 and 0.98 and 1.99 and 1.81 | 1.27 ± 0.63 | inhibited | 0.53 ± 0.06(***) | 0.54 and 0.59 and 0.55 | 0.47 ± 0.03(***) | 0.42 and 0.46 and 0.50 and 0.48 | 0.41 ± 0.10(***) | 0.31 and 0.51 (2×) and 0.49 and 0.28 and 0.40 | 0.48 ± 0.09 (***) | best responses | 1.46 ± 0.10 | 1.31 mmol/L and 1.55 mmol/L and 1.56 mmol/L and 1.52 mmol/L and 1.40 mmol/L and 1.39 mmol/L | 1.06 ± 0.66 | 0.59 mmol/L and 1.64 mmol/L and 0.39 mmol/L and 1.62 mmol/L | 1.47 ± 0.20(* mmol/L | 1.08 mmol/L and 1.63 mmol/L and 1.30 mmol/L | Combined results on bone formation activity of mature osteoblasts (calcium released), Mean ± SD [3]: 1.47 ± 0.16 mmol/L |

— US7078059B2, “Treatment of bone diseases” (Shire Holdings AG, priority 2000, dated 2006)
